Tests used:
[1] = Inhibitory concentration againstHuman cell lung carcinoma cell line NCI-H69/LX4; n=3; assay type: functional, cell-based, Homo sapiens
[2] = system: NCI-H69; assay: Inhibitory concentration againstHuman cell lung carcinoma cell line NCI-H69; n=3; assay type: functional, cell-based, Homo sapiens
[3] = Inhibitory concentration againstHuman Karpas 299 Anaplastic Large Cell Lymphoma (CD30+) at 96th hour; n=9; assay type: functional, Homo sapiens
[4] = system: CAKI-1; assay: Inhibitory concentration againstHuman Caki-1 Renal CellCarcinoma Cell Lines (CD70+) at 96th hour; n=1; assay type: functional, cell-based; settings: Homo sapiens
[5] = system: CAKI-1; assay: Inhibitory concentration againstHuman Caki-1 Renal CellCarcinoma Cell Lines (CD70+) at 4th hour; n=1; assay type: functional, cell-based; settings: Homo sapiens
[6] = Inhibitory concentration againstHuman Karpas 299 Anaplastic Large Cell Lymphoma (CD30+) at 4th hour; n=1; assay type: functional, Homo sapiens
[7] = Inhibitory concentration againstHuman Karpas 299 Anaplastic Large Cell Lymphoma (CD30+) at 96th hour; n=1; assay type: functional, Homo sapiens
[8] = Inhibitory concentration againstHuman Karpas 299 Anaplastic Large Cell Lymphoma (CD30+) at 96th hour; n=39; assay type: functional, Homo sapiens
[9] = system: CAKI-1; assay: Inhibitory concentration againstHuman Caki-1 Renal CellCarcinoma Cell Lines (CD70+) at 96th hour; n=14; assay type: functional, cell-based; settings: Homo sapiens

Compound	IC50 [1] [nM]	IC50 [5] [nM]	IC50 [6] [nM]	IC50 ([2]; Homo sapiens, NCI-H69) [nM]	IC50 [4] [nM]	also measured
CISPLATIN	2820	–	–	–	–	IC50 ([2]; nci-h69): 683 nM
COc1ccc(/C=C/C(=O)N2CC(CCl)c3c2cc(N)c2ccccc32)cc1 (stereo not given)	2.87	0.59	0.34	0.87	0.68	IC50 [3]: 1.17 nM
CO[C@@]12[C@H](COC(N)=O)C3=C(C(=O)C(C)=C(N)C3=O)N1C[C@@H]1N[C@@H]12 [MITOMYCIN]	–	251	525	–	–	IC50 [8]: 133 nM; IC50 [9]: 40 nM

Further lines, with some results ahead:

IC50 [1] [nM]	IC50 [5] [nM]	IC50 [6] [nM]	IC50 ([2]; Homo sapiens, NCI-H69) [nM]	Compound	IC50 [4] [nM]	also measured
–	0.55	0.28	–	COc1cc2c(c(OC)c1OC)NC(C(=O)N1CC(CCl)c3c1cc(O)c1ncccc31)C2 (stereo not given)	0.45	IC50 [7]: 0.18 nM
1800	–	–	11.3	COc1cccc2c1C(=O)c1c(O)c3c(c(O)c1C2=O)C[C@@](O)(C(=O)CO)C[C@@H]3O[C@H]1C[C@H](N)[C@H](O)[C@H](C)O1 [DOXORUBICIN]	–	–
20.7	–	–	13.4	COc1ccc(/C=C/C(=O)N2CC(CCl)c3c2cc(NC(=O)C(CCCCN)NC(=O)C(NC(=O)CCOCCOCCOCCOCCNC(=O)CBr)C(C)C)c2ccccc32)cc1 (stereo not given)	–	–

From ChEMBL document CHEMBL1142693, “Design, synthesis, and in vitro evaluation of dipeptide-based antibody minor groove binder conjugates” (J Med Chem, 2005)
